Source: US12138256B2, “Treatment of cardiopulmonary disorders” (Bayer Aktiengesellschaft, priority 2021, dated 2024)
“And” between values parts separate entries of the source, which are not always exact repeats. Identical values can stand only once. Like-named read-outs stand apart in the source and are kept apart here.

Columns and labels:
[1] = Thermal stability of the solid (90° C., 7 days, HPLC peak areas); assay type: physicochemical
Description: 0.3 mg of the test compound, e.g. comparative example 11 were solved in 0.1 ml dimethylsulfoxide and 0.4 ml acetonitrile. Then 1.0 ml water was added. For complete dissolution the HPLC vial was shaken and sonicated. This solution was immediately analyzed by HPLC (reference at t0). 0.3 mg of the test compound was weighed into another HPLC vial. The vial was capped and stored for 7 days in a heating block at 90° C.
After this time the vial was decapped and 0.1 ml dimethylsulfoxide and 0.4 ml acetonitrile were added to the stressed compound. Then 1.0 ml water was added. For complete dissolution the HPLC vial was shaken and sonicated. The sample was analyzed by HPLC (sample after 1 week). The peak areas in percentage are used for quantification.

plasma proteins [2] = assay: Protein binding via Transil assay, rat plasma; assay type: in vitro ADME; conditions: rat plasma
From the text: (§1) The distribution of a test substance between Transil® (phosphatidylcholine lipid bilayers immobilized on silica beads) and plasma is a characteristic feature of any pharmaceutical compound and is dependent on its extent of binding to plasma proteins. By comparing the distribution between Transil® and buffer with the distribution between Transil® and plasma of any species of interest, the unbound fraction in the plasma of the respective animal species can be calculated in vitro. The respective plasma and buffer concentrations were determined via a radioactivity analysis. A detailed description of the method and its validation was published by Schuhmacher et al. (2).

Caco-2 cells = assay: Caco-2 permeability test (C-5.1); assay type: in vitro ADME, human; conditions: 2 μM
Description: The in vitro permeation of a test compound across a Caco-2 cell monolayer is a well-established assay system to predict the permeability from the gastro-intestinal tract (1). The permeability of the compounds of the present invention in such Caco-2 cells was determined as described below:
Human caco-2 cells were seeded on 24-well insert plates and were allowed to grow for 14-16 days. For permeability studies, the test compounds were dissolved in DMSO and diluted to the final test concentration of 2 μM with transport buffer [Hanks' Buffered Salt Solution, Gibco/Invitrogen, further supplemented with glucose and HEPES]. For determination of the apical to basolateral permeability (PappA-B), the test compound solution was added to the apical side of the cell monolayer and transport buffer to the basolateral side of the monolayer; for determination of the basolateral to apical permeability (PappB-A), the test compound solution was added to the basolateral side of the cell monolayer and transport buffer to the apical side of the monolayer. Samples were taken from the donor compartment at the beginning of the experiment to confirm mass balance. After an incubation of 2 h at 37° C., samples were taken from both compartments. Samples were analyzed by LC-MS/MS, and the apparent permeability coefficients were calculated. Lucifer Yellow permeability was assayed for each cell monolayer to ensure cell monolayer integrity, and the permeability of Atenolol (low permeability marker) and Sulfasalazine (marker for active excretion) was determined for each batch as quality control.

[3] = tested on: allergen-induced late airway hyperresponsiveness and inflammation in sensitized mice; assay: Chronic asthma model: ovalbumin sensitized BALB/c mice, airway hyperresponsiveness and BAL (C-3.3); assay type: in vivo, mouse; conditions: for inhibition at 0.1 mg/kg: Mus musculus, dexamethasone 18 h and 1 h before each Ova challenge, comparative example 11 high dose of 100 μg/kg 2 h before
Description: The study was conducted to investigate whether inhalative treatment with comparative example 11 has a protective effect on the experimentally allergen-induced late airway hyperresponsiveness and inflammation in sensitized mice. Female BALB/c mice were sensitized and boosted with Ovalbumin (Ova) and aluminium hydroxide adjuvant (day 0. 14 and 21) with the exception of the negative control group receiving NaCl. On day 28 and 29. the animals were challenged with Ova aerosol. On day 30, a hyperresponsiveness test followed by bronchoalveolar lavage (BAL) was performed in all animals of all groups. The treatment groups D (10 μg) and E (100 μg) were treated with comparative example 11 inhalationally 2 h before each Ova challenge. Group A and B, the positive and negative control groups, were treated correspondingly with the vehicle. The Ova-sensitized positive control group A should show the full allergic reaction and, in contrast, the sham-sensitized negative control group B should show no allergic response. As a reference group, the animals of group C were treated inhalative with the corticosteroid dexamethasone but—due to its different mechanism of action—18 h and 1 h before each Ova challenge (on day 27, 28 and 29). On day 30, 24 h after Ova challenge in the late allergic phase, lung function—especially RL—was measured in the orotracheally intubated mice and a test on airway hyperresponsiveness was performed (inhalational methacholine provocation in doubling dose steps). […] These inhibitory effects show the successful therapeutic intervention.

[4] = Protein binding, minipig plasma (fraction unbound); assay type: in vitro ADME
From the text: as §1

[5] = tested on: thromboxane analog U46619 induced PAH in minipigs; assay: PAH minipig model: comparison with and on top of standard of care (bosentan, sildenafil, riociguat); assay type: in vivo, Göttingen minipig; conditions: for BP decrease % / PAP decrease %: % change per animal
From the text: Efficacy of inhaled comparative example 11 was compared with systemically applied bosentan, sildenafil and riociguat (see FIG. 53a) in the PAH minipig model. […] Therefore inhaled application of comparative example 11 offers clear benefits as systemic effects are avoided, compared to standard of care.

plasma proteins [6] = assay: Protein binding via Transil assay, human plasma; assay type: in vitro ADME; conditions: plasma
From the text: as §1

systemic blood pressure = assay: First clinical studies in healthy volunteers: systemic blood pressure; assay type: in vivo, human; conditions: up to 4000 μg, dry powder inhaled
[7] = 30 μg/kg inhaled on top of Bosentan 1 mg/kg
[8] = 30 μg/kg inhaled on top of Riociguat 3 μg/kg/h
[9] = 30 μg/kg inhaled on top of Sildenafil 300 μg/kg/h
[10] = 30 μg/kg nominal dose inhaled, alone

O=C(O)c1ccc(CCN(CCc2ccccc2OCc2ccc(-c3ccc(C(F)(F)F)cc3)cc2Cl)[C@H]2CCCc3nc(C(=O)O)ccc32)cc1 [comparative example 11, (5S)-5-{[2-(4-carboxyphenyl)ethyl][2-(2-{[3-chloro-4′-(trifluoromethyl)[biphenyl]-4-yl]methoxy}phenyl)ethyl]amino}-5,6,7,8-tetrahydroquinoline-2-carboxylic acid]
thermal stability [1]: stable | fraction unbound, times lower than comparative example 1 (plasma proteins [2]): 1.6 times | efflux ratio (Caco-2 cells): does not show an efflux ratio | inhibition at 0.1 mg/kg ([3]; read-out: inhibition of the airway hyperresponsiveness (ED100)): 38% | inhibition at 0.1 mg/kg ([3]; read-out: inhibition of the airway hyperresponsiveness (ED150)): 32% | inhibition of the eosinophilic influx ([3]; high dose group (100 μg)): 31% | effect on airway hyperresponsiveness ([3]; low dose (10 μg)): no or only marginal effects | inhibition of the eosinophilic influx ([3]; low dose group (10 μg)): 19% | fraction unbound ([4]; Minipig (female) plasma, read-out: Fraction unbound): 0.00348 | fraction unbound ([4]; plasma (Transil beads), minipig plasma, read-out: plasma fu (fraction unbound)): 0.00348 | BP decrease % [5, 7]: −12.8% and 3.6% | PAP decrease % [5, 7]: −29.7% and −27.1% | BP decrease % [5, 8]: 3.1% and −1.1% and 11.5% | PAP decrease % [5, 8]: −29.7% and −24.2% and −26.3% | BP decrease % [5, 9]: −6.9% and −6.4% and 1.2% | PAP decrease % [5, 9]: −33.6% and −36.9% and −42.8% | BP decrease % [5, 10]: −6.8% and 1.6% and 3.5% | PAP decrease % [5, 10]: −19.9% and −22.8% and −21.7% | BP decrease % ([5]; 100 μg/kg nominal dose inhaled): −4.5% and −9.9% and −3.1% | PAP decrease % ([5]; 100 μg/kg nominal dose inhaled): −33.1% and −45.1% and −38.2% | efficacy regarding PAP on top of bosentan, sildenafil or riociguat ([5]; comparative example 11 30 μg/kg inhaled): maintained its efficacy regarding PAP | ratio of fraction unbound minipig/human (plasma proteins [6]): 4.55

O=C(O)c1ccc(CCN(CCc2ccccc2OCc2ccc(-c3ccc(C(F)(F)F)cc3)cc2Cl)[C@H]2CCCc3nc(C(=O)O)ccc32)cc1 [example 4, (5S)-{[2-(4-Carboxyphenyl)ethyl][2-(2-{[3-chloro-4′-(trifluoromethyl)biphenyl-4-yl]methoxy}phenyl)-ethyl]amino}-5,6,7,8-tetrahydroquinoline-2-carboxylic acid]
effect on systemic blood pressure in healthy volunteers (systemic blood pressure): no clinically meaningful effect on systemic blood pressure
